Assay results taken from PMC7992430 (Journal of medicinal chemistry, 2020).

Assays:
[1] = tested on: G9 neurospheres (glioma stem-like cells); experiment: G9 cytotoxicity assay; assay type: cell-based
[2] = tested on: G30 neurospheres (glioma stem-like cells, luciferase-transduced); experiment: G30 cytotoxicity assay; assay type: cell-based; settings: read-out: IC50 in G30 GSCs, 72 h treatment, CellTiter-Glo

| SMILES | IC50 against G9 cells ([1]; 80 h treatment, CellTiter-Glo) | IC50 ([1]; read-out: IC50 against G9 cells, 80 h treatment, CellTiter-Glo) | IC50 [2] |
| --- | --- | --- | --- |
| CCCCNC(=O)[O][Pt]([NH2])([NH2])([Cl])([Cl])[O]C(=O)CCC(=O)O [prodrug 4, cis,cis,trans-[Pt(NH3)2Cl2(O2CCH2CH2COOH)(n-butyl Carba-mate)]] | not active | – | – |
| N.N.[Cl][Pt][Cl] [cisplatin] | – | 4 µM | 2 µM |
